Source: the supplement of paper PMC10307832

Experiments:
Assay in all cases: relative viability (nuclei count vs DMSO), 5 days (fraction); higher = more cells survive
Imatinib + Tozasertib = compound: Cc1ccc(NC(=O)c2ccc(CN3CCN(C)CC3)cc2)cc1Nc1nccc(-c2cccnc2)n1 [Imatinib] + Cc1cc(Nc2cc(N3CCN(C)CC3)nc(Sc3ccc(NC(=O)C4CC4)cc3)n2)n[nH]1 [Tozasertib] (partner 0.1 µM)
How it was run: (§1)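 Cells from lung cancer lines were seeded into 1536-well plates and, one day later, dosed by pin tool. Treatments were either a single drug or a fixed dose of an anchor drug with five library-drug doses (not always all listed) in √10 steps. After 5 days, nuclei were stained in a one-step fixation (final 0.05% Triton X-100, 1% formaldehyde, 1 ug/ml Hoechst) and counted on 4× images, and relative viability is the treated-to-vehicle nuclei ratio, as the median of duplicate plates.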

Imatinib + Lapatinib = compound: Cc1ccc(NC(=O)c2ccc(CN3CCN(C)CC3)cc2)cc1Nc1nccc(-c2cccnc2)n1 [Imatinib] + CS(=O)(=O)CCNCc1ccc(-c2ccc3ncnc(Nc4ccc(OCc5cccc(F)c5)c(Cl)c4)c3c2)o1 [Lapatinib] (partner 2 µM)
How it was run: as §1

Imatinib + Linsitinib = compound: Cc1ccc(NC(=O)c2ccc(CN3CCN(C)CC3)cc2)cc1Nc1nccc(-c2cccnc2)n1 [Imatinib] + C[C@]1(O)C[C@@H](c2nc(-c3ccc4ccc(-c5ccccc5)nc4c3)c3c(N)nccn32)C1 [Linsitinib] (partner 1 µM)
How it was run: as §1

Imatinib + Decitabine = compound: Cc1ccc(NC(=O)c2ccc(CN3CCN(C)CC3)cc2)cc1Nc1nccc(-c2cccnc2)n1 [Imatinib] + Nc1ncn([C@H]2C[C@H](O)[C@@H](CO)O2)c(=O)n1 [Decitabine] (partner 2 µM)
How it was run: as §1

| Cell Line | relative viability (Imatinib + Tozasertib; first compound 0.02 µM) | relative viability (Imatinib + Tozasertib; first compound 0.2 µM) | relative viability (Imatinib + Tozasertib; first compound 0.6325 µM) | relative viability (Imatinib + Tozasertib; first compound 2 µM) | relative viability (Imatinib + Lapatinib; first compound 0.2 µM) | relative viability (Imatinib + Lapatinib; first compound 0.6325 µM) | relative viability (Imatinib + Lapatinib; first compound 2 µM) | relative viability (Imatinib + Linsitinib; first compound 0.02 µM) | relative viability (Imatinib + Linsitinib; first compound 0.2 µM) | relative viability (Imatinib + Linsitinib; first compound 0.6325 µM) | relative viability (Imatinib + Linsitinib; first compound 2 µM) | relative viability (Imatinib + Decitabine; first compound 0.02 µM) | relative viability (Imatinib + Decitabine; first compound 0.06325 µM) | relative viability (Imatinib + Decitabine; first compound 0.2 µM) | relative viability (Imatinib + Decitabine; first compound 0.6325 µM) | relative viability (Imatinib + Decitabine; first compound 2 µM) | relative viability (Imatinib + Tozasertib; first compound 0.06325 µM) | relative viability (Imatinib + Lapatinib; first compound 0.02 µM) | relative viability (Imatinib + Linsitinib; first compound 0.06325 µM) | relative viability (Imatinib + Lapatinib; first compound 0.06325 µM) |
| --- | --- | --- | --- | --- | --- | --- | --- | --- | --- | --- | --- | --- | --- | --- | --- | --- | --- | --- | --- | --- |
| A-427 | 0.192 | 0.176 | 0.195 | 0.197 | 1.05 | 1.12 | 0.952 | 1.11 | 1.11 | 1.17 | 1.08 | 0.588 | 0.536 | 0.558 | 0.558 | 0.562 | – | – | – | – |
| NCI-H358 | 0.103 | 0.102 | 0.0961 | 0.0939 | 0.445 | 0.448 | 0.392 | 0.726 | 0.851 | 0.669 | 0.863 | 0.205 | 0.168 | 0.214 | 0.207 | 0.202 | 0.121 | 0.478 | – | – |
| NCI-H520 | 0.474 | 0.366 | 0.424 | – | 1.01 | 0.82 | 0.86 | 1.09 | 1.02 | 1.14 | 0.988 | 0.531 | 0.514 | 0.532 | 0.508 | 0.487 | 0.509 | 1.06 | 1.48 | – |
| NCI-H1993 | 0.636 | 0.591 | 0.581 | 0.588 | 0.774 | 0.809 | 0.698 | – | 0.747 | 0.72 | 0.707 | 0.629 | 0.718 | 0.662 | 0.643 | 0.528 | 0.632 | – | 0.73 | 0.872 |
| H3255 | 0.604 | 0.638 | 0.575 | 0.614 | 0.268 | 0.266 | 0.23 | 1.06 | 0.877 | 0.965 | 0.998 | 0.605 | – | 0.544 | 0.633 | 0.504 | 0.608 | 0.234 | 0.921 | – |
| LXF-289 | 0.22 | 0.21 | 0.232 | 0.187 | 0.96 | 0.905 | 0.873 | 1.03 | 1.08 | 0.892 | 0.935 | 0.387 | – | 0.407 | 0.391 | 0.405 | 0.162 | 0.974 | 1.05 | 0.999 |
| HCC-15 | 0.472 | 0.389 | 0.402 | 0.284 | 1 | 0.901 | 0.839 | 0.82 | 0.926 | – | 0.867 | 0.605 | 0.598 | 0.638 | 0.677 | 0.524 | – | – | 0.917 | 0.582 |
| NCI-H1437 | 0.449 | 0.411 | 0.408 | 0.373 | 0.925 | 0.706 | 0.823 | – | 1.42 | – | 1.04 | 0.587 | 0.664 | 0.597 | 0.629 | 0.578 | 0.453 | 0.916 | 1.18 | 0.841 |
| LK-2 | 0.173 | 0.159 | 0.139 | 0.176 | 1.11 | 0.486 | 0.967 | 0.614 | 0.739 | 0.222 | 0.689 | 0.336 | 0.323 | 0.237 | – | 0.183 | 0.181 | 1.02 | 0.427 | 0.625 |
| 201T | 0.98 | 1.06 | – | 0.859 | – | 0.989 | 0.989 | 1.03 | 1.03 | 1.03 | 0.957 | 0.855 | 0.8 | 0.841 | 0.852 | 0.843 | – | 0.993 | – | – |
| LOU-NH91 | 0.636 | 0.761 | 0.596 | 0.667 | 0.792 | 0.765 | 0.766 | 0.993 | 0.996 | 0.869 | 0.87 | 0.793 | 0.814 | 0.795 | 0.813 | 0.767 | 0.833 | 0.793 | 0.964 | 0.775 |
| BEN | 0.523 | 0.489 | 0.492 | 0.51 | 0.725 | 0.697 | 0.54 | 0.908 | 0.921 | 0.837 | 0.969 | 0.711 | 0.557 | 0.738 | 0.732 | 0.732 | 0.546 | – | 0.785 | 0.465 |
| NCI-H647 | 0.554 | 0.0832 | 0.28 | 0.321 | 1.2 | 1.17 | 1.02 | 1.43 | 1.25 | 1.13 | 1.18 | 0.454 | 0.432 | 0.421 | 0.366 | 0.37 | 0.242 | – | 1.44 | 1.11 |
| HCC-78 | 0.393 | 0.427 | 0.409 | 0.427 | 0.676 | – | 1.04 | 0.444 | 0.563 | 0.524 | 0.576 | 0.644 | 0.7 | 0.715 | 0.721 | 0.71 | 0.455 | 0.924 | 0.528 | 0.467 |
| NCI-H2085 | 0.823 | 0.877 | 0.553 | 0.489 | 0.733 | 0.819 | 0.694 | 0.93 | 1.11 | 0.95 | 0.825 | 0.529 | 0.556 | 0.513 | 0.61 | 0.527 | 0.795 | 0.754 | 0.823 | 0.591 |
| NCI-H1651 | 0.796 | 0.649 | 0.535 | 0.436 | 0.994 | 0.692 | 0.87 | 1.09 | 1.21 | 0.946 | 1.11 | 0.56 | 0.297 | 0.643 | 0.591 | 0.599 | 0.659 | 1.02 | 1.14 | 1.06 |
| NCI-H2126 | 0.921 | 0.872 | 0.352 | 0.739 | 0.828 | 0.684 | 0.704 | 0.724 | 0.728 | 0.742 | 0.758 | 0.545 | 0.522 | 0.634 | 0.58 | 0.538 | – | – | – | – |
